Results published in patent US20010039287A1, “AROMATIC SULFONE HYDROXAMIC ACID METALLOPROTEASE INHIBITOR” (priority 1997, published 2001).
pIC50: −log10 of the molar value. Where a name gives a salt, the structure may show the parent alone.

Assays:
Assay in all cases: biochemical
recombinant human MMP-9 = recombinant human MMP-9 (Homo sapiens, UniProt P14780); settings: Inhibition Table B; read-out: MMP-9 IC50
recombinant human MMP-13 = recombinant human MMP-13 (Homo sapiens, UniProt P45452); settings: Inhibition Table B; read-out: MMP-13 IC50
recombinant human MMP-1 = target: T1, recombinant human MMP-1 (Homo sapiens, UniProt P03956); settings: Inhibition Table B; read-out: MMP-1 IC50
T1 construct: made in house; host or cells: transfected HT-1080 cells (provided by Dr. Harold Welgus, Washington University)
T1 sequence (P03956 100-469): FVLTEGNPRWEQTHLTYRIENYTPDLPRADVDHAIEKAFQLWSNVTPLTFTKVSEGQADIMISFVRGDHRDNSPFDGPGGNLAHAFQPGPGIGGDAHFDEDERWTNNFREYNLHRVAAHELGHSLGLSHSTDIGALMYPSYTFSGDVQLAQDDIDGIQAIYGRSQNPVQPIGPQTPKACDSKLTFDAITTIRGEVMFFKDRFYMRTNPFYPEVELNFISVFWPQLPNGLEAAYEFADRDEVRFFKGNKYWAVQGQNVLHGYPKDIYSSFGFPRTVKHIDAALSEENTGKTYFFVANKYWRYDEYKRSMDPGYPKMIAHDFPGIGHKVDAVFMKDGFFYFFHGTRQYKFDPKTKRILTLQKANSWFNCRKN

recombinant human MMP-2 = target: T2, recombinant human MMP-2 (Homo sapiens, UniProt P08253); settings: Inhibition Table B; read-out: MMP-2 IC50
T2 sequence (P08253 110-660): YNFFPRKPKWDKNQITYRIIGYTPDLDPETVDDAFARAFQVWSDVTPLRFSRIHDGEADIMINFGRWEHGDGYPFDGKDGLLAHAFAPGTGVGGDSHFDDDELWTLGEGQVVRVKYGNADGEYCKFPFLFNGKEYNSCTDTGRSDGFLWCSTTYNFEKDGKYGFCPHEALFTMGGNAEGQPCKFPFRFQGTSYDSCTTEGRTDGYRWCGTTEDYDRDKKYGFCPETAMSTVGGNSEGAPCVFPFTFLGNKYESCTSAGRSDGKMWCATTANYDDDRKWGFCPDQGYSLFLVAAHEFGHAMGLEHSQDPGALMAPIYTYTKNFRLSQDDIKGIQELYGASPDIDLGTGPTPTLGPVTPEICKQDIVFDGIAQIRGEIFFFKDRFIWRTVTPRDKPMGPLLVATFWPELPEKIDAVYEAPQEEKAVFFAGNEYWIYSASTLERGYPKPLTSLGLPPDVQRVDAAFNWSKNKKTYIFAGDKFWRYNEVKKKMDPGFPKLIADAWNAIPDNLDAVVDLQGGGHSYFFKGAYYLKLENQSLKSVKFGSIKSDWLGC

Sequence of recombinant human MMP-9 (P14780 107-707 limits assumed): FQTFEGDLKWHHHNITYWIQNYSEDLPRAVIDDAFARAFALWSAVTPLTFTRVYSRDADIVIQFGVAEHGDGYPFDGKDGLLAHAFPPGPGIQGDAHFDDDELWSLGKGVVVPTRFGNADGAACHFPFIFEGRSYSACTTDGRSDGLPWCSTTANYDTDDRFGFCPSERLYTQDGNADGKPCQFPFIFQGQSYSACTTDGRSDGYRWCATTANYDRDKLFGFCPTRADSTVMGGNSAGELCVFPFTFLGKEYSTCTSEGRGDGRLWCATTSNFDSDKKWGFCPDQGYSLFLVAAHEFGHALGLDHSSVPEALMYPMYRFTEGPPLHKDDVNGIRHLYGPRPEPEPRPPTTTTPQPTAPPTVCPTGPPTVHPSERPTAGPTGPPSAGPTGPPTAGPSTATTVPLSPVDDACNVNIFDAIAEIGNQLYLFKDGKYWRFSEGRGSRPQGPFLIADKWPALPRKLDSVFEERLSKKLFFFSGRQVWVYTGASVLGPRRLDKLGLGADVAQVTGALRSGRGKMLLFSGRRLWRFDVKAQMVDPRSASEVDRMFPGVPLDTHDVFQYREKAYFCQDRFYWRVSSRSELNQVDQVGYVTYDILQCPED

SMILES	pIC50 (recombinant human MMP-9)	pIC50 (recombinant human MMP-13)	pIC50 (recombinant human MMP-1)	pIC50 (recombinant human MMP-2)
C#CCN1CCC(C(=O)NO)(S(=O)(=O)c2ccc(Oc3ccc(OC)c(OC)c3)cc2)CC1 [Example 38, 4-[[4-(3,4-dimethoxyphenoxy)phenyl]sulfonyl]-N-hydroxy-1-(2-propynyl)-4-piperidinecarboxamide, Monohydrochloride]	6.87	7.66	< 5.00	7.70
COCCN1CCC(C(=O)NO)(S(=O)(=O)c2ccc(Oc3ccccc3)cc2)CC1 [Example 30]	9.52	10.00	6.46	10.00
COc1ccc(Sc2ccc(S(=O)(=O)C3(C(=O)NO)CCOCC3)cc2)cc1 [Example 65, Tetrahydro-N-hydroxy-4-[[4-(4-methoxyphenylthio)phenyl]-sulfonyl]-2H-pyran-4-carboxamide]	8.36	9.15	5.10	9.22
O=C(O)CCc1ccc(Oc2ccc(S(=O)(=O)C3(C(=O)NO)CCOCC3)cc2)cc1 [Example 105, 4-[4-[[tetrahydro-4-[(hydroxyamino)carbonyl]-2H-pyran-4-yl]sulfonyl]phenoxy]benzenepropanoic Acid]	6.94	9.07	< 5.00	5.46
Cc1cc(Oc2ccc(S(=O)(=O)C3(C(=O)NO)CCN(CC(=O)O)CC3)cc2)ccc1Cl [Example 80, 4-[[4-(4-chloro-3-methylphenoxy)phenyl]sulfonyl]-4-(hydroxyamino)carbonyl]-1-piperidineacetic Acid, Monohydrochloride]	8.74	9.70	5.52	10.00
O=C(O)CN1CCC(C(=O)NO)(S(=O)(=O)c2ccc(Oc3ccc(Cl)cc3)cc2)CC1 [Example 88, 4-[[4-(4-chlorophenoxy)-phenyl]sulfonyl]-4-[(hydroxyamino)-carbonyl]-1-piperidineacetic Acid, Monohydrochloride]	9.30	9.70	5.96	9.70
O=C(NO)C1(S(=O)(=O)c2ccc(Oc3ccc(Cl)cc3)cc2)CCN(CCN2CCOCC2)CC1 [Example 89, 4-[[4-(4-chlorophenoxy)-phenyl]sulfonyl]-N-hydroxy-1-[2-(4-morpholinyl)ethyl]-4-piperidine-carboxamide, Dihydrochloride]	9.40	9.60	5.92	9.82
Cc1ccc(Oc2ccc(S(=O)(=O)C3(C(=O)NO)CCOCC3)cc2)cc1C [Example 96, 4-[[4-(3,4-dimethyl-phenoxy)phenyl]ssulfonyl]tetrahydro-N-hydroxy-2H-pyran-4-carboxamide]	8.89	9.52	5.30	9.70
Cc1cc(Oc2ccc(S(=O)(=O)C3(C(=O)NO)CCNCC3)cc2)ccc1F [Example 83, 4-[[4-(4-fluoro-3-methylphenoxy)phenyl]sulfonyl]-N-hydroxy-4-piperidine Carboxamide, Monohydrochloride]	8.30	8.82	5.10	8.92
O=C(NO)C1(S(=O)(=O)c2ccc(Sc3ccncc3)cc2)CCSCC1 [Example 119, tetrahydro-N-hydroxy-4-[[4-(4-pyridinylthio)-phenyl]sulfonyl]-2H-thiopyran-4-carboxamide, Monohydrochloride]	7.52	8.77	< 5.00	8.82
NCCc1ccc(Oc2ccc(S(=O)(=O)C3(C(=O)NO)CCSCC3)cc2)cc1 [Example 116, tetrahydro-N-hydroxy-4-[[4-[4-tyramine)phenoxy]phenyl] Sulfonyl 2H-thiopyran-4-carboxamide]	7.82	8.26	5.63	8.70
O=C(NO)C1(S(=O)(=O)c2ccc(Oc3ccccc3)cc2)CCS(=O)(=O)CC1 [Example 110]	8.00	9.30	5.57	9.40
